Data from patent US10059703B2, “3-alkyl-5-fluoro-4-substituted-imino-3,4-dihydropyrimidin-2(1H)-one derivatives as fungicides” (Adama Makhteshim Ltd., priority 2012, dated 2018).
Read-outs that look alike come from different tables or passages of the source.

How the values were obtained:
Septoria tritici = experiment: Fungicidal activity: leaf blotch of wheat, one-day protectant and three-day curative tests on wheat plants; assay type: in vivo; conditions: Zymoseptoria tritici
Protocol: Example 16: Evaluation of Fungicidal Activity: Leaf Blotch of Wheat (Mycosphaerella graminicola; anamorph: Septoria tritici; Bayer code SEPTTR)
Wheat plants (variety Yuma) were grown from seed in a greenhouse in 50% mineral soil/50% soil-less Metro mix until the first leaf was fully emerged, with 7-10 seedlings per pot. These plants were inoculated with an aqueous spore suspension of Septoria tritici either prior to or after fungicide treatments. After inoculation the plants were kept in 100% relative humidity (one day in a dark dew chamber followed by two to three days in a lighted dew chamber) to permit spores to germinate and infect the leaf. The plants were then transferred to a greenhouse for disease to develop.
(§1) The following tables present the activity of typical compounds of the present disclosure when evaluated in these experiments. The effectiveness of the test compounds in controlling disease was determined by assessing the severity of disease on treated plants, then converting the severity to percent control based on the level of disease on untreated, inoculated plants.
as §1, with “table presents” for “tables present”

[1] = 24 h, One-Day Protectant (1 DP), 100 ppm, wheat plants (variety Yuma), read-out: SEPTTR 100 PPM 1 DP (% Disease Control rating)
[2] = 72 h, Three-Day Curative (3 DC), 100 ppm, wheat plants (variety Yuma), read-out: SEPTTR 100 PPM 3 DC (% Disease Control rating)
[3] = 24 h, read-out: SEPTTR 100 PPM 1 DP (% Disease Control rating)
[4] = 72 h, read-out: SEPTTR 100 PPM 3 DC (% Disease Control rating)

melting point	Compound	pest or weed control at 100 ppm (Septoria tritici; [1])	pest or weed control at 100 ppm (Septoria tritici; [2])	pest or weed control at 100 ppm (Septoria tritici; [3])	pest or weed control at 100 ppm (Septoria tritici; [4])
117 to 123 °C	C/N=c1\c(F)cn(S(=O)(=O)c2ccc(C)cc2)c(=O)n1C [Compound F3]	76 to 100%	51 to 75%	–	–
175.7 to 177.6 °C	C/N=c1\c(F)cn(S(=O)(=O)c2c(C)cc(C)cc2C)c(=O)n1C [Compound F15]	26 to 50%	26 to 50%	–	–
111.4 to 112 °C	C/N=c1\c(F)cn(S(=O)(=O)c2cccc(OC)c2)c(=O)n1C [Compound F12]	76 to 100%	76 to 100%	–	–
–	Cc1ccc(S(=O)(=O)n2cc(F)/c(=N/C(=O)C(C)C)n(COC(=O)C(C)C)c2=O)cc1 [Compound F25, Z)-(5-fluoro-6-(isobutyrylimino)-2-oxo-3-tosyl-2,3-dihydropyrimidin-1(6H)-yl)methyl isobutyrate]	0 to 25%	76 to 100%	–	–
–	C/N=c1\c(F)cn(S(=O)(=O)c2sc(C)nc2C)c(=O)n1C [Compound F23]	26 to 50%	76 to 100%	–	–
200 to 201 °C	COC(=O)/N=c1\c(F)cn(S(=O)(=O)c2cccc(C)c2)c(=O)n1C [Compound F49]	0 to 25%	0 to 25%	–	–
178 to 179 °C	COC(=O)/N=c1\c(F)cn(S(=O)(=O)c2cc(C)c(Cl)cc2C)c(=O)n1C [Compound F50]	0 to 25%	0 to 25%	–	–
148.6 to 150.6 °C	C/N=c1\c(F)cn(S(=O)(=O)c2cccc(C#N)c2)c(=O)n1C [Compound F7]	26 to 50%	51 to 75%	–	–
148 to 149 °C	COC(=O)/N=c1\c(F)cn(S(=O)(=O)c2cc(Cl)sc2Cl)c(=O)n1C [Compound F51]	0 to 25%	0 to 25%	–	–
157.1 to 158 °C	C/N=c1\c(F)cn(S(=O)(=O)c2cc(Cl)sc2Cl)c(=O)n1C [Compound F9]	76 to 100%	76 to 100%	–	–
189 to 192 °C	Cn1c(=O)n(S(=O)(=O)c2ccccc2)cc(F)/c1=N\Cc1ccccc1F [Compound F52]	0 to 25%	0 to 25%	–	–
177 to 180 °C	Cc1cccc(S(=O)(=O)n2cc(F)/c(=N\Cc3ccccc3F)n(C)c2=O)c1 [Compound F57]	0 to 25%	0 to 25%	–	–
164 °C	CC(=O)/N=c1\c(F)cn(S(=O)(=O)c2cccc(C)c2)c(=O)n1C [Compound F34]	76 to 100%	0 to 25%	–	–
134.6 to 136.2 °C	CC(=O)/N=c1\c(F)cn(S(=O)(=O)c2ccc(C)cc2)c(=O)n1C [Compound F29]	76 to 100%	76 to 100%	–	–
–	[2H]C([2H])([2H])/N=c1\c(F)cn(S(=O)(=O)c2ccccc2)c(=O)n1C([2H])([2H])[2H] [Compound F61, 5-fluoro-1-(phenylsulfonyl)-3-trideuteriomethyl-4-(trideuteriomethylimino)-3,4-dihydropyrimidin-2(1H)-one]	0 to 25%	0 to 25%	–	–
154 °C	CC(=O)/N=c1\c(F)cn(S(=O)(=O)c2cc(Cl)sc2Cl)c(=O)n1C [Compound F36]	76 to 100%	51 to 75%	–	–
123.7 to 125.8 °C	C/N=c1\c(F)cn(S(=O)(=O)c2cccc(C)c2)c(=O)n1C [Compound F16]	26 to 50%	0 to 25%	–	–
124 to 125 °C	COC(=O)/N=c1\c(F)cn(S(=O)(=O)c2ccc(OC)cc2)c(=O)n1C [Compound F27, methyl (5-fluoro-1-((4-methoxyphenyl)sulfonyl)-3-methyl-2-oxo-2,3-dihydropyrimidin-4(1H)-ylidene)carbamate]	0 to 25%	0 to 25%	–	–
137.3 to 138.9 °C	C/N=c1\c(F)cn(S(=O)(=O)c2cccc(F)c2)c(=O)n1C [Compound F14]	76 to 100%	51 to 75%	–	–

melting point	Compound	pest or weed control at 100 ppm (Septoria tritici; [1])	pest or weed control at 100 ppm (Septoria tritici; [2])	pest or weed control at 100 ppm (Septoria tritici; [3])	pest or weed control at 100 ppm (Septoria tritici; [4])
102.2 to 104 °C	C/N=c1\c(F)cn(S(=O)(=O)C2CC2)c(=O)n1C [Compound F28]	0 to 25%	51 to 75%	–	–
130 to 134 °C	C/N=c1\c(F)cn(S(=O)(=O)c2ccc(Cl)cc2)c(=O)n1C [Compound F5]	76 to 100%	76 to 100%	–	–
108 to 111 °C	Cn1c(=O)n(S(=O)(=O)c2cc(Cl)sc2Cl)cc(F)/c1=N\Cc1ccccc1F [Compound F59]	0 to 25%	0 to 25%	–	–
115 to 117.8 °C	C/N=c1\c(F)cn(S(=O)(=O)c2cc(OC)ccc2OC)c(=O)n1C [Compound F11]	76 to 100%	76 to 100%	–	–
184 to 187 °C	Cc1ccc(S(=O)(=O)n2cc(F)/c(=N\Cc3ccccc3F)n(C)c2=O)cc1 [Compound F54]	0 to 25%	0 to 25%	–	–
185 to 186 °C	COC(=O)/N=c1\c(F)cn(S(=O)(=O)c2ccccc2)c(=O)n1C [Compound F45]	0 to 25%	0 to 25%	–	–
145 to 146 °C	COC(=O)/N=c1\c(F)cn(S(=O)(=O)c2ccc(C)cc2)c(=O)n1C [Compound F46]	0 to 25%	0 to 25%	–	–
136 to 138 °C	C/N=c1\c(F)cn(S(=O)(=O)c2cccs2)c(=O)n1C [Compound F4]	76 to 100%	76 to 100%	–	–
–	[2H]C([2H])([2H])/N=c1\c(F)cn(S(=O)(=O)c2ccc(C)cc2)c(=O)n1C([2H])([2H])[2H] [Compound F62, 5-fluoro-1-((4-methylphenyl)sulfonyl)-3-trideuteriomethyl-4-(trideuteriomethylimino)-3,4-dihydropyrimidin-2(1H)-one]	0 to 25%	0 to 25%	–	–
130.1 to 131.1 °C	C/N=c1\c(F)cn(S(=O)(=O)c2c(C)noc2C)c(=O)n1C [Compound F19]	0 to 25%	51 to 75%	–	–
147 to 149 °C	C/N=c1\c(F)cn(S(=O)(=O)c2cn(C)nc2C)c(=O)n1C [Compound F18]	26 to 50%	76 to 100%	–	–
149.4 to 151 °C	C/N=c1\c(F)cn(S(=O)(=O)c2ccc(C)c(Cl)c2)c(=O)n1C [Compound F10]	76 to 100%	51 to 75%	–	–
116 to 117 °C	COC(=O)/N=c1\c(F)cn(S(=O)(=O)c2ccc(C(C)C)cc2)c(=O)n1C [Compound F48]	0 to 25%	0 to 25%	–	–
–	C/N=c1\c(F)cn(S(=O)(=O)c2cc(C)c(Cl)cc2C)c(=O)n1C [Compound F22]	76 to 100%	76 to 100%	–	–
–	COc1ccc(S(=O)(=O)n2cc(F)/c(=N/C(C)=O)n(C)c2=O)cc1 [Compound F26]	76 to 100%	76 to 100%	–	–
109 to 112 °C	C/N=c1\c(F)cn(S(=O)(=O)c2ccc(F)cc2Cl)c(=O)n1C [Compound F21]	–	–	–	–
–	[2H]C([2H])([2H])/N=c1\c(F)cn(S(=O)(=O)c2ccc(OC)cc2)c(=O)n1C([2H])([2H])[2H] [Compound F63, 5-fluoro-1-((4-methoxyphenyl)sulfonyl)-3-trideuteriomethyl-4-(trideuteriomethylimino)-3,4-dihydropyrimidin-2(1H)-one]	0 to 25%	0 to 25%	–	–
–	COc1ccc(S(=O)(=O)n2cc(F)/c(=N\C(C)=O)n(C)c2=O)cc1 [Compound F31, N-(5-fluoro-1-((4-methoxyphenyl)sulfonyl)-3-methyl-2-oxo-2,3-dihydropyrimidin-4(1H)-ylidene)acetamide]	76 to 100%	76 to 100%	–	–

Compound	melting point	pest or weed control at 100 ppm (Septoria tritici; [1])	pest or weed control at 100 ppm (Septoria tritici; [2])	pest or weed control at 100 ppm (Septoria tritici; [3])	pest or weed control at 100 ppm (Septoria tritici; [4])
Cc1cccc(S(=O)(=O)n2cc(F)/c(=N\C(=O)Oc3ccccc3)n(C)c2=O)c1 [Compound F42]	187 to 188 °C	–	–	76 to 100%	0 to 25%
CCc1ccc(S(=O)(=O)n2cc(F)/c(=N\C(=O)Oc3ccccc3)n(C)c2=O)cc1 [Compound F40]	188 to 190 °C	–	–	0 to 25%	0 to 25%
Cc1cc(S(=O)(=O)n2cc(F)/c(=N\C(=O)Oc3ccccc3)n(C)c2=O)c(C)cc1Cl [Compound F43]	209 to 211 °C	–	–	0 to 25%	0 to 25%
